# Results reported in patent US7238689B2, “Isoxazoline derivative and herbicide comprising the same as active ingredient” (Ihara Chemical Industry Co., Ltd., priority 2001, dated 2007).
# Legend:
# Type in all cases: in vivo
# Parameters in all cases: scale not given here
# [1] = tested on: Monochoria vaginalis (Murm. f.) Presl var. plantaginea (Roxb.) Solms-Laub.; assay: Herbicidal effect by paddy field soil treatment; details: wettable powder, active ingredient 1000 g/ha, examined at the 21st day from the treatment
# Procedure: (§1) A paddy field soil was filled in a plastic pot of 100 cm^2 and subjected to puddling. Then, seeds of Echinochloa oryzicola Vasing and Monochoria vaginalis (Murm. f.) Presl var. plantaginea (Roxb.) Solms-Laub. were sowed and water was filled in a depth of 3 cm. Next day, wettable powders produced in accordance with the Formulation 1 were diluted with water and dropped on the water surface. The application amount of each wettable powder was 1,000 g per 1 hectare in terms of the active ingredient. Then, breeding was made in a greenhouse, and the herbicidal effect of each wettable powder was examined at the 21st day from the treatment in accordance with the standard shown in Table 21.
# [2] = tested on: Echinochloa oryzicola Vasing; assay: Herbicidal effect by paddy field soil treatment; details: wettable powder, active ingredient 1000 g/ha, examined at the 21st day from the treatment
# Procedure: as §1
# [3] = tested on: Setaria viridis (L.) Beauv.; assay: Herbicidal effect by upland field soil treatment; details: active ingredient 1000 g/ha, examined at 21st day from treatment
# Excerpt: (§2) An upland field soil was filled in a plastic pot of 80 cm^2. Seeds of Echinochloa crus-galli (L.) Beauv. var. crusgalli and Setaria viridis (L.) Beauv. were sowed, followed by covering with the same soil. […] Then, breeding was made in a greenhouse, and the herbicidal effect of each wettable powder was examined at the 21st day from the treatment in accordance with the standard shown in Table 21.
# [4] = tested on: Echinochloa crus-galli (L.) Beauv. var. crusgalli; assay: Herbicidal effect by upland field soil treatment; details: active ingredient 1000 g/ha, examined at 21st day from treatment
# Excerpt: as §2
Structure (SMILES),"Herbicidal effect index, Monochoria vaginalis (Burm. F.) Presl var. plantaginea (Roxb.) Solms-Laub. [1]","Herbicidal effect index, Echinochloa oryzicola Vasing [2]","herbicidal effect (index per standard of Table 21), Setaria viridis (L.) Beauv. [3]","herbicidal effect (index per standard of Table 21), Echinochloa curs-galli (L.) Beauv. Var. crus-galli [4]"
CC(C)C(SC1=NOC(C)(C)C1)c1cncnc1C(F)(F)F (racemic) [8-0012],5,5,–,–
Cc1ccc(CS(=O)(=O)C2=NOC(C)(C)C2)s1 [1-0003],5,5,5,5
CC1(C)CC(S(=O)(=O)Cc2ccc(Cl)s2)=NO1 [1-0005],5,5,5,5
CC1(C)CC(S(=O)(=O)Cc2ccco2)=NO1 [1-0006],–,–,4,5
CC1(C)CC(S(=O)(=O)Cc2cc(Cl)sc2Cl)=NO1 [2-0005],5,5,5,5
Cc1sc(C)c(CS(=O)(=O)C2=NOC(C)(C)C2)c1C [2-0007],–,–,4,4
"Cn1nc(C(F)F)c(CSC2=NOC(C)(C)C2)c1Cl [3-0020, 3-(5-chloro-3-difluoromethyl-1-methyl-1H-pyrazol-4-ylmethylthio)-5,5-dimethyl-2-isoxazoline]",–,–,5,5
COc1nn(C)c(C(F)(F)F)c1CS(=O)(=O)C1=NOC(C)(C)C1 [3-0043],–,–,5,5
CCCCOc1c(CS(=O)(=O)C2=NOC(C)(C)C2)c(C(F)(F)F)nn1C [3-0048],–,–,5,5
Cn1nc(C(F)(F)F)c(CS(=O)(=O)C2=NOC(C)(C)C2)c1OCC1CC1 [3-0050],–,–,5,5
Cn1nc(C(F)(F)F)c(CS(=O)(=O)C2=NOC(C)(C)C2)c1OCC1CCCC1 [3-0051],5,5,–,–
C#CCOc1c(CS(=O)(=O)C2=NOC(C)(C)C2)c(C(F)(F)F)nn1C [3-0053],–,–,5,5
Cn1nc(C(F)(F)F)c(CS(=O)(=O)C2=NOC(C)(C)C2)c1OCC(F)F [3-0056],–,–,5,5
Cn1nc(C(F)(F)F)c(CS(=O)(=O)C2=NOC(C)(C)C2)c1Oc1cccc(Cl)c1 [3-0061],5,5,–,–
Cn1nc(C(F)(F)F)c(CS(=O)(=O)C2=NOC(C)(C)C2)c1Oc1ccc(Cl)cc1 [3-0063],–,–,5,5
CC1(C)CC(S(=O)(=O)Cc2c(C(F)(F)F)nn(C3CCCC3)c2Cl)=NO1 [3-0089],5,5,–,–
CC1(C)CC(S(=O)(=O)Cc2c(Cl)nn(C3CCCC3)c2C(F)(F)F)=NO1 [3-0090],5,5,–,–
CC1(C)CC(S(=O)(=O)Cc2c(C(F)(F)F)nn(CC3CCCC3)c2Cl)=NO1 [3-0100],5,5,–,–
CC1(C)CC(S(=O)(=O)Cc2c(Cl)nn(CC3CCCC3)c2C(F)(F)F)=NO1 [3-0101],5,5,–,–
CC1(C)CC(S(=O)(=O)Cc2c(C(F)(F)F)nn(CC3CCCCC3)c2Cl)=NO1 [3-0102],5,5,–,–
CC1(C)CC(S(=O)(=O)Cc2c(Cl)nn(CC3CCCCC3)c2C(F)(F)F)=NO1 [3-0103],5,5,–,–

Structure (SMILES),"Herbicidal effect index, Monochoria vaginalis (Burm. F.) Presl var. plantaginea (Roxb.) Solms-Laub. [1]","Herbicidal effect index, Echinochloa oryzicola Vasing [2]","herbicidal effect (index per standard of Table 21), Setaria viridis (L.) Beauv. [3]","herbicidal effect (index per standard of Table 21), Echinochloa curs-galli (L.) Beauv. Var. crus-galli [4]"
CCOC(=O)Cn1nc(C(F)(F)F)c(CS(=O)(=O)C2=NOC(C)(C)C2)c1Cl [3-0136],–,–,5,5
CC1(C)CC(S(=O)(=O)Cc2c(C(F)(F)F)nn(CC(N)=O)c2Cl)=NO1 [3-0138],–,–,5,4
CC(=O)Cn1nc(C(F)(F)F)c(CS(=O)(=O)C2=NOC(C)(C)C2)c1Cl [3-0142],–,–,5,5
CC(=O)Cn1nc(Cl)c(CS(=O)(=O)C2=NOC(C)(C)C2)c1C(F)(F)F [3-0143],–,–,5,5
CC1(C)CC(S(=O)(=O)Cc2c(C(F)(F)F)nn(-c3ccccc3)c2OC(F)F)=NO1 [3-0160],5,5,–,–
CC1(C)CC(S(=O)(=O)Cc2c(C(F)(F)F)nn(S(=O)(=O)c3ccccc3)c2Cl)=NO1 [3-0176],5,5,–,–
CC(=O)n1nc(C(F)(F)F)c(CS(=O)(=O)C2=NOC(C)(C)C2)c1Cl [3-0177],5,5,–,–
CC1(C)CC(S(=O)(=O)Cc2c(C(F)(F)F)nn(C(=O)c3ccccc3)c2Cl)=NO1 [3-0178],5,5,–,–
"Cc1onc(C(F)(F)F)c1CS(=O)(=O)C1=NOC(C)(C)C1 [4-0001, 5,5-dimethyl-3-(5-methyl-3-trifluoromethylisoxazol-4-ylmehtylsulfonyl)-2-isoxazoline]",5,5,–,–
CCOc1onc(C(F)(F)F)c1CS(=O)(=O)C1=NOC(C)(C)C1 [4-0006],–,–,5,5
CC1(C)CC(S(=O)(=O)Cc2nn(C(F)F)c3c2CCCC3)=NO1 [6-0001],–,–,5,5
"CC1(C)CC(S(=O)(=O)Cc2c[n+]([O-])ccc2C(F)(F)F)=NO1 [7-0002, 5,5-dimethyl-3-(4-trifluoromethyl-pyridine-N-oxide-3-ylmethylsulfonyl)-2-isoxazoline]",–,–,5,5
COc1c(CS(=O)(=O)C2=NOC(C)(C)C2)c(-c2ccccc2)cc[n+]1[O-] [7-0007],–,–,4,5
CCOc1ncnc(C(F)(F)F)c1CS(=O)(=O)C1=NOC(C)(C)C1 [8-0004],–,–,5,5
COc1ncnc(OC)c1CS(=O)(=O)C1=NOC(C)(C)C1 [8-0005],–,–,4,5
COc1nc(OC)c(CS(=O)(=O)C2=NOC(C)(C)C2)c(C(F)(F)F)n1 [8-0007],–,–,5,5
CC1(C)CC(S(=O)(=O)Cc2ccncc2)=NO1 [9-0003],5,5,–,–
CC1(C)CC(S(=O)(=O)Cc2nc(Cc3ccccc3)no2)=NO1 [9-0007],–,–,4,4
CC1(C)CC(S(=O)(=O)Cc2cc3ccccc3s2)=NO1 [10-0002],4,5,–,–
CC1(C)CC(S(=O)(=O)Cc2csc3ccc(Cl)cc23)=NO1 [10-0008],5,5,–,–
CC1(C)CC(S(=O)(=O)Cc2sc3ccccc3c2Br)=NO1 [10-0011],5,5,–,–
